Results as given in ChEMBL document CHEMBL4261632, “Synthesis of five libraries of 6,5-fused heterocycles to establish the importance of the heterocyclic core for antiplasmodial activity” (Bioorg Med Chem, 2018).
pEC50: −log10 of the molar value.

Test system: Plasmodium falciparum
Assay: Antiplasmodial activity against chloroquine-sensitive Plasmodium falciparum NF54
Type: functional, organism-based
Settings: for pEC50: Plasmodium falciparum, NF54, read-out: EC50; call rule not given here

Row | SMILES | pEC50 | EC50
1 | Cl.O=C(OCc1cccc2ccccc12)c1nc2c(OC3CCNCC3)cccc2o1 | – | Not Active
2 | Cc1c(C(=O)NCc2cccc3ccccc23)[nH]c2cccc(OC3CCNCC3)c12 | 6.13 | –
3 | O=C(OCc1cccc2ccccc12)c1cc2c(OC3CCNCC3)cccc2s1 | 5.72 | –
4 | Cn1c(C(=O)OCc2cccc3ccccc23)nc2cccc(OC3CCNCC3)c21 | 5.13 | –
5 | Cn1c(C(=O)NCc2cccc3ccccc23)nc2cccc(OC3CCNCC3)c21 | 5.94 | –
6 | Cl.O=C(OCc1ccccc1)c1nc2c(OC3CCNCC3)cccc2o1 | – | Not Active
7 | Cc1c(C(=O)OCc2cccc3ccccc23)[nH]c2cccc(OC3CCNCC3)c12 | 6.13 | –
8 | O=C(NCc1cccc2ccccc12)c1nc2c(OC3CCNCC3)cccc2o1 | 5.71 | –
9 | O=C(NCc1cccc2ccccc12)c1cc2c(OC3CCNCC3)cccc2s1 | 6.15 | –
10 | Cl.O=C(OCCc1ccccc1)c1nc2c(OC3CCNCC3)cccc2o1 | – | Not Active
11 | Cl.O=C(NCc1ccccc1)c1nc2c(OC3CCNCC3)cccc2o1 | – | Not Active
12 | Cn1c(C(=O)NCc2ccccc2)nc2cccc(OC3CCNCC3)c21 | 5.06 | –
13 | Cn1c(C(=O)OCc2ccccc2)nc2cccc(OC3CCNCC3)c21 | 4.88 | –
14 | Cn1c(C(=O)OCCc2ccccc2)nc2cccc(OC3CCNCC3)c21 | 4.95 | –
15 | C[C@H]1[C@H](OC(=O)CCC(=O)O)O[C@@H]2O[C@@]3(C)CC[C@H]4[C@H](C)CC[C@@H]1[C@@]24OO3 [ARTESUNATE] | 8.03 | –
16 | CCN(CC)CCCC(C)Nc1ccnc2cc(Cl)ccc12 (configuration not stated) [CHLOROQUINE] | 7.89 | –

Further lines, results first:

Row | pEC50 | EC50 | SMILES
17 | 5.24 | – | O=C(OCc1ccccc1)c1cc2c(OC3CCNCC3)cccc2s1
18 | 5.21 | – | Cc1c(C(=O)NCc2ccccc2)[nH]c2cccc(OC3CCNCC3)c12
19 | 6.05 | – | O=C(NCc1cccc2ccccc12)c1cc2c(OC3CCNCC3)cccc2[nH]1
20 | 5.23 | – | O=C(OCCc1ccccc1)c1cc2c(OC3CCNCC3)cccc2s1
21 | 5.47 | – | O=C(OCc1ccccc1)c1cc2c(OC3CCNCC3)cccc2[nH]1
22 | 5.46 | – | O=C(NCc1ccccc1)c1cc2c(OC3CCNCC3)cccc2s1
23 | 5.19 | – | O=C(OCCc1ccccc1)c1cc2c(OC3CCNCC3)cccc2[nH]1
24 | – | Not Active | Cl.O=C(NCCc1ccccc1)c1nc2c(OC3CCNCC3)cccc2o1
25 | 5.43 | – | O=C(NCc1ccccc1)c1cc2c(OC3CCNCC3)cccc2[nH]1
26 | 6.08 | – | O=C(OCc1cccc2ccccc12)c1cc2c(OC3CCNCC3)cccc2[nH]1
27 | 5.47 | – | Cc1c(C(=O)NCCc2ccccc2)[nH]c2cccc(OC3CCNCC3)c12
28 | 5.41 | – | Cc1c(C(=O)OCCc2ccccc2)[nH]c2cccc(OC3CCNCC3)c12
29 | 5.52 | – | O=C(NCCc1ccccc1)c1cc2c(OC3CCNCC3)cccc2s1
30 | 5.06 | – | Cn1c(C(=O)NCCc2ccccc2)nc2cccc(OC3CCNCC3)c21
31 | 5.51 | – | O=C(NCCc1ccccc1)c1cc2c(OC3CCNCC3)cccc2[nH]1
32 | 6.25 | – | Cc1c(C(=O)OCc2ccccc2)[nH]c2cccc(OC3CCNCC3)c12
